{"source": "paper PMC9905601", "about": "“Archaeal DNA-import apparatus is homologous to bacterial conjugation machinery” (Nature Communications, 2023)", "target": "T1, P. calidifontis protein Pcal_0765, TedC (Pyrobaculum calidifontis, UniProt A3MU74)", "T1 sequence (A3MU74 23-153)": "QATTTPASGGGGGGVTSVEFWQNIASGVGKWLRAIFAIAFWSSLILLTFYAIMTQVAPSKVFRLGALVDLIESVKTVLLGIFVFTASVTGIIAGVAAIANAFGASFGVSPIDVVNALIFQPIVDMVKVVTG", "assay": "cryo-EM structure of native pilus, […] Å", "type": "binding", "data": [{"smiles": "C[C@@H]1CCC[C@H](C)CCC[C@@H](C)CC[C@H](C)CCC[C@@H](C)CCC[C@H](C)CCC[C@H](C)CCOC[C@H](CO)OCC[C@H](C)CCC[C@H](C)CCC[C@H](C)CCC[C@@H](C)CC[C@H](C)CCC[C@@H](C)CCC[C@H](C)CCC[C@H](C)CCOC[C@H](CO)OCC[C@H](C)CCC1", "note": "[GDGT-0]", "values": [{"measurement": "cryo-EM structure of native pilus, 4.0 Å", "result": "we have modeled the simplest form, GDGT-0, into the cryo-EM density"}]}]}
